Reference: PMC10382351, “In vivo evaluation of a novel ^18F-labeled PET radioligand for translocator protein 18 kDa (TSPO) in monkey brain” (European Journal of Nuclear Medicine and Molecular Imaging, 2023)
Where “and” joins values, the source holds several entries; their conditions need not be identical. Equal values may be shown once. Entries after “also recorded” stand apart in the source; their conditions may differ.

Test system: 18 kDa translocator protein (TSPO)
Test: PET imaging of [^18F]SF51 in rhesus monkey brain with kinetic analysis (2TCM, Logan plot, Lassen plot)
Assay type: in vivo
Conditions: for Estimated K1 / VT/fP using Logan plot: Blocked (PK11195); for Estimated K1: three rhesus monkeys; for VT/fP using Logan plot: n=3
Method: Electrocardiogram, body temperature, heart rate, and respiratory rate measures were monitored throughout the scan.
Brain PET imaging was performed using a microPET Focus 220 camera (Siemens Medical Solution; Knoxville, TN). […] For baseline experiments, 20 mL of a vehicle containing 20% (2-hydroxypropyl)-β-cyclodextrin and two equivalents of HCl were injected intravenously 10 min before radioligand administration. For the blocked experiment, PK11195 was dissolved in vehicle and then injected intravenously (5 mg/kg) 10 min before radioligand injection for all three monkeys. One of the three monkeys underwent an additional blocked scan with 5 mg/kg of PBR28, performed using a MultiScan™ LFER 150 PET/CT (Mediso USA, LLC; Arlington, VA). The interval between baseline and blocked imaging sessions was at least three weeks in order to allow the monkey to recover from arterial blood sampling. Focus 220 PET images were histogrammed into 30 time frames (6 × 30, 3 × 60, 2 × 120, 4 × 300, and 15 × 600 s) and reconstructed using Fourier rebinning plus a two-dimensional filtered back-projection with scatter and attenuation correction. MultiScan LFER PET images were reconstructed with 3D-OSEM with two iterations and nine subsets and were corrected for scatter and attenuation.
PET images were co-registered to a standardized monkey MRI template using PMOD software (PMOD version 4.1, PMOD Technologies Ltd.; Zurich, Switzerland). Thirty-three predefined regions of interest (ROIs) from a monkey brain template were applied to the co-registered PET images to obtain regional time-activity curves (Supplementary Table S2). Brain uptake was expressed as standardized uptake value (SUV), which normalizes for injected radioactivity and body weight. Using the brain time-activity curves and the radiometabolite-corrected arterial input function, the total VT was derived from a two-tissue compartment model (2TCM). Receptor occupancy by PK11195 and nondisplaceable distribution volume (VND/fP) of [^18F]SF51 were determined by an axes-transformed Lassen plot, where the y-axis reports the difference in VT between the baseline and the blocked scans, corrected by the respective fp values, and the x-axis reports the values at baseline (VTbase/fPbase).

SMILES: CC[C@@H](C)N(C)C(=O)c1nc(-c2cccc([18F])c2)c2ccccc2n1 [[^18F]SF51]
- VT/fP (Blocked (PK11195 5 mg/kg i.v.), Insula, 2TCM, n = 3): 23 mL·cm^−3
- VT/fP (Blocked (PK11195 5 mg/kg i.v.), Occipital Cortex, 2TCM, n = 3): 23 mL·cm^−3
- VT/fP (Blocked (PK11195 5 mg/kg i.v.), Parietal Cortex, 2TCM, n = 3): 24 mL·cm^−3
- VT/fP (Blocked (PK11195 5 mg/kg i.v.), Striatum, 2TCM, n = 3): 26 mL·cm^−3
- VT/fP (Blocked (PK11195 5 mg/kg i.v.), Temporal Cortex, 2TCM, n = 3): 22 mL·cm^−3
- VT/fP (Blocked (PK11195 5 mg/kg i.v.), Thalamus, 2TCM, n = 3): 27 mL·cm^−3
- VT/fP (Blocked (PK11195 5 mg/kg i.v.), Whole Brain, 2TCM, n = 3): 24 mL·cm^−3
- Estimated K1 (Amygdala, 2TCM): 0.38 mL·cm^-3·min^-1
- VT/fP using Logan plot (Amygdala): 23 mL·cm^-3
- Estimated K1 (Cerebellum, 2TCM): 0.62 mL·cm^-3·min^-1
- VT/fP using Logan plot (Cerebellum): 25 mL·cm^-3
- Estimated K1 (Cingulate Cortex, 2TCM): 0.34 mL·cm^-3·min^-1
- VT/fP using Logan plot (Cingulate Cortex): 24 mL·cm^-3
- Estimated K1 (Frontal Cortex, 2TCM): 0.36 mL·cm^-3·min^-1
- VT/fP using Logan plot (Frontal Cortex): 25 mL·cm^-3
- Estimated K1 (Hippocampus, 2TCM): 0.48 mL·cm^-3·min^-1
- VT/fP using Logan plot (Hippocampus): 21 mL·cm^-3
- Estimated K1 (Insula, 2TCM): 0.37 mL·cm^-3·min^-1
- VT/fP using Logan plot (Insula): 23 mL·cm^-3
- Estimated K1 (Occipital Cortex, 2TCM): 0.40 mL·cm^-3·min^-1
- VT/fP using Logan plot (Occipital Cortex): 22 mL·cm^-3
- Estimated K1 (Parietal Cortex, 2TCM): 0.35 mL·cm^-3·min^-1
- VT/fP using Logan plot (Parietal Cortex): 23 mL·cm^-3
- Estimated K1 (Striatum, 2TCM): 0.65 mL·cm^-3·min^-1
- VT/fP using Logan plot (Striatum): 25 mL·cm^-3
- Estimated K1 (Temporal Cortex, 2TCM): 0.36 mL·cm^-3·min^-1
- VT/fP using Logan plot (Temporal Cortex): 22 mL·cm^-3
- Estimated K1 (Thalamus, 2TCM): 0.50 mL·cm^-3·min^-1
- VT/fP using Logan plot (Thalamus): 26 mL·cm^-3
- Estimated K1 (Whole Brain, 2TCM): 0.41 mL·cm^-3·min^-1
- VT/fP using Logan plot (Whole Brain): 24 mL·cm^-3
- VT/fP (Blocked, PBR28 pre-blockade (5 mg/kg), Amygdala, one monkey): 9 mL·cm^-3
- VT/fP (Blocked, PBR28 pre-blockade (5 mg/kg), Cerebellum, one monkey): 10 mL·cm^-3
- VT/fP (Blocked, PBR28 pre-blockade (5 mg/kg), Cingulate Cortex, one monkey): 10 mL·cm^-3
- VT/fP (Blocked, PBR28 pre-blockade (5 mg/kg), Frontal Cortex, one monkey): 10 mL·cm^-3
- VT/fP (Blocked, PBR28 pre-blockade (5 mg/kg), Hippocampus, one monkey): 9 mL·cm^-3
- VT/fP (Blocked, PBR28 pre-blockade (5 mg/kg), Insula, one monkey): 10 mL·cm^-3
- VT/fP (Blocked, PBR28 pre-blockade (5 mg/kg), Occipital Cortex, one monkey): 10 mL·cm^-3
- VT/fP (Blocked, PBR28 pre-blockade (5 mg/kg), Parietal Cortex, one monkey): 10 mL·cm^-3
- VT/fP (Blocked, PBR28 pre-blockade (5 mg/kg), Striatum, one monkey): 10 mL·cm^-3
- VT/fP (Blocked, PBR28 pre-blockade (5 mg/kg), Temporal Cortex, one monkey): 9 mL·cm^-3
- VT/fP (Blocked, PBR28 pre-blockade (5 mg/kg), Thalamus, one monkey): 12 mL·cm^-3
- VT/fP (Blocked, PBR28 pre-blockade (5 mg/kg), Whole Brain, one monkey): 10 mL·cm^-3
- VND/fP (x-intercept of the regression lines) (Lassen plot, monkey brain, n = 3): 27 ± 11 mL· cm^−3
- Increase of K1 in blocked scans compared to baseline scans (all regions, PK11195): about 30%
- x-intercept of Lassen plot (VND/fP) (mean ± SD, n = 3): 27 ± 11
- Decrease of VT/fP (binding displaced) after blockade with PK11195 (monkey brain, PK11195 5 mg/kg i.v.): ~ 90%
- Mean SUV peak in brain after pre-blockade (monkey brain, after 5 mg/kg PK11195, n = 3): 3.0 ± 0.5 SUV
- Brain activity relative to the peak (monkey brain, baseline, at 180 min): 30 % of the peak
- Brain activity relative to the peak (monkey brain, baseline, by 110 min): 50 % of the peak
- Peak concentration of brain radioactivity (mean SUV peak) (monkey whole brain, baseline, n = 3): 2.0 SUV and 2.0 ± 0.1 SUV
- Uptake in the skull (monkey, baseline, blocked by PK11195 and PBR28): No significant uptake; also recorded: low uptake
- BPND of whole brain (monkey, ratio of specific binding to nondisplaceable uptake, n = 3): 7.6 ± 4.3 and 7.6
